# Laboratory results: ChEMBL document CHEMBL3124821, “Activity of caffeic acid derivatives against Candida albicans biofilm” (Bioorg Med Chem Lett, 2014)
# Columns and labels:
# [1] = tested on: Candida albicans; assay: Antifungal activity against early stage preformed Candida albicans ATCC 10231 biofilm by XTT reduction assay; type: functional
# [2] = tested on: Candida albicans; assay: Inhibition of biofilm formation of Candida albicans ATCC 10231 by XTT reduction assay; type: functional
# [3] = tested on: Candida albicans; assay: Antifungal activity against mature preformed Candida albicans ATCC 10231 biofilm by XTT reduction assay; type: functional
# [4] = tested on: Candida albicans; assay: Antifungal activity against planktonically grown Candida albicans ATCC 10231 by CLSI M27 A3 broth microdilution method; type: functional
# [5] = in vitro; conditions: human, NCI-H292 cells
# Description: Cytotoxicity against human NCI-H292 cells assessed as reduction in viable cells by MTT assay
# [6] = tested on: Candida albicans; assay: Ratio of compound MIC to fluconazole MIC for biofilm formation of Candida albicans ATCC 10231 by XTT reduction assay; type: functional
Compound,MIC50 [1],MIC50 [2],MIC50 [3],MIC50 [4],CC50 [5],Ratio [6]
OC(Cn1cncn1)(Cn1cncn1)c1ccc(F)cc1F [FLUCONAZOLE],256 µg/mL,128 µg/mL,256 µg/mL,0.5 µg/mL,–,–
CC(C)COC(=O)/C=C/c1ccc(O)c(O)c1,–,256 µg/mL,256 µg/mL,128 µg/mL,–,–
O=C(/C=C/c1ccccc1)OCc1ccc([N+](=O)[O-])o1,32 µg/mL,32 µg/mL,64 µg/mL,2 µg/mL,174 µg/mL,–
COc1ccc(OC(=O)/C=C/c2ccc(O)c(O)c2)cc1F,–,256 µg/mL,256 µg/mL,128 µg/mL,–,–
O=C(O)/C=C/c1ccc(O)c(O)c1 [CAFFEIC ACID],256 µg/mL,256 µg/mL,256 µg/mL,128 µg/mL,–,–
O=C(/C=C/c1ccc(O)c(O)c1)OCc1ccc([N+](=O)[O-])o1,64 µg/mL,32 µg/mL,128 µg/mL,16 µg/mL,192 µg/mL,–
O=C(OCc1ccc([N+](=O)[O-])o1)c1ccc(O)c(O)c1,64 µg/mL,16 µg/mL,64 µg/mL,16 µg/mL,132 µg/mL,8
CCOC(=O)/C=C/c1ccc(O)c(O)c1 [ETHYL CAFFEATE],–,256 µg/mL,256 µg/mL,128 µg/mL,–,–
CCCOC(=O)/C=C/c1ccc(O)c(O)c1,256 µg/mL,256 µg/mL,256 µg/mL,128 µg/mL,–,–
COC(=O)/C=C/c1ccc(O)c(O)c1 [METHYLCAFFEATE],–,256 µg/mL,256 µg/mL,128 µg/mL,–,–
O=C(CCc1ccc(O)c(O)c1)OCc1ccc([N+](=O)[O-])o1,128 µg/mL,128 µg/mL,128 µg/mL,64 µg/mL,257 µg/mL,–
